Test results reported in patent US20060148848A1, “Compounds and methods for treating cancer and inflammation” (QLT, Inc., priority 2002, published 2006).

Experiments:
[1] = system: HUVEC cells; assay: Cell proliferation (3H-thymidine incorporation), HUVEC; type: cell-based; conditions: Homo sapiens, 24 hours, read-out: in vitro inhibition of cell proliferation
Excerpt: (§1) This procedure (Jelinkova, R. B. et al., “Antiproliferative effect of a lectin- and anti-Thy-1.2 antibody-targeted HPMA copolymer-bound doxorubicin on primary and metastatic human colourectal carcinoma and on human colourectal carcinoma transfected with the mouse Thy-1.2 gene”, Bioconjug. Chem. (2000), Vol. 11, No. 5, pp. 664-73) is used to assess the effect compounds have on various cell lines with respect to proliferation. The rate of anchorage-independent growth of various tumour cells is quantified by measuring the amount of free isotopic thymidine that has been incorporated into the cells over a period of time. The effect of any compound to inhibit the proliferation of various tumour cells could be used as an indication of its ability to prevent disease progression in cancer.
(§2) Cultured tumour cells are harvested cells as per normal procedures: i.e. trypsinize, centrifuge and count cells. […]
(§3) After incubation, plates are observed under the microscope for obvious cell death, abnormal cell shape, crystal formation of the compound, etc. […] Finally, 100 μL of scintillation fluid is added to each well and the plates are counted in a Wallac™ 1450 Microbeta™ counter according to user manual instructions.
(§4) The amount of inhibition is determined by the following formula: % inhibition=100−[(AVG treatment−AVG positive control)/[…]]

[2] = system: LL-86 cells; assay: Cytotoxicity assay (calcein AM cell viability), LL-86; type: cell-based; conditions: 50 μM, approximately 24 hours
Excerpt: (§5) This procedure is used to assess the effects compounds have on various cell lines with respect to cell viability. Cell viability is quantified using calcein AM and measuring its conversion to a fluorescent product (calcein) with a fluorimeter.
(§6) The principle of this assay is based on the presence of ubiquitous intracellular esterase activity found in live cells. By enzymatic reaction of esterase, non-fluorescent cell-permeant calcein AM is converted to the intensely fluorescent calcein. The polyanionic dye calcein is retained within live cells, producing a green fluorescence in live cells. […]
(§7) Cells were collected from tissue culture flasks and trypsinized, centrifuged, resuspended and counted. […]
(§8) The calcein AM solution is prepared by added 50 μg of calcein AM crystal (m.w.=994.87 g/mol, Molecular Probes, Eugene, Oreg.) and nnhydrous DMSO (Sigma Aldrich) to make 1 mM stock and diluting stock to 2× the final desired concentration in 1×DPBS just before the assay. […] Fluorescence data was read and recorded (Fluoroskan Ascent® FL fluorimeter (excitation˜485 nm, emission˜527 nm)).
(§9) The values for replicates (usually six) are averaged and % inhibition is calculated as follows: % inhibition=100−[(AVG treatment−AVG positive control)/(AVG negative control−AVG positive control)*100]

[3] = system: H460 cells; assay: Cell proliferation (3H-thymidine incorporation), H460; type: cell-based; conditions: Homo sapiens, NCI-H460, 24 hours, read-out: in vitro inhibition of cell proliferation
Excerpt: as §1, §2, §3, §4

[4] = system: PC3 cells; assay: Cell proliferation (3H-thymidine incorporation), PC3; type: cell-based; conditions: Homo sapiens, PC-3, 24 hours, read-out: in vitro inhibition of cell proliferation
Excerpt: as §1, §2, §3, §4

[5] = target: T1, SGK2α (Homo sapiens, UniProt Q9HBY8); assay: SGK2α in vitro kinase assay; type: biochemical; conditions: recombinant human GST-SGK2α, [γ-32P]-ATP, 15 minutes at ambient temperature
T1 construct: made in house; host or cells: baculovirus; Sf9 (virus generation) and High Five insect cells (expression)
T1 sequence (Q9HBY8 1-367): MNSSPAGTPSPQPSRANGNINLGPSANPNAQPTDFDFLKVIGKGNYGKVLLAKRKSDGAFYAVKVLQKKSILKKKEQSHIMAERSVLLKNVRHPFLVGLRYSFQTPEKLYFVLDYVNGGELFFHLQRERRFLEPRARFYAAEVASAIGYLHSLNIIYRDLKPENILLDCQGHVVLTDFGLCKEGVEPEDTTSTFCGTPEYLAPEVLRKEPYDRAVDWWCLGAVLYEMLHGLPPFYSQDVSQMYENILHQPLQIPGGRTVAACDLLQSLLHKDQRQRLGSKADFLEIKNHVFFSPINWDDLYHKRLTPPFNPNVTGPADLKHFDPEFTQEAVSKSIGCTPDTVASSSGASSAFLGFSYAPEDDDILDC
Excerpt: SGK2α cDNA was cloned from human brain cDNA library by the polymerase chain reaction (PCR) technique and subsequently inserted directly into pPCR-2.1 T/A cloning vector (Strategene). After DNA sequencing, the confirmed wild-type human SGK2α cDNA was subcloned into baculovirus expression vector pAcG2T (BD PharMingen) for recombinant protein expression in insect cells. Expression of human SGK2α as a fusion protein required that the cDNA be ligated into the polyclonal site situated in frame and downstream of the glutathione-S-transferase gene of the baculovirus transfer vector pAcG2T. The 1104 base pair SGK2α coding sequence was excised from the pPCR-2.1 T/A vector using the Bam HI and Eco RI restriction sites generated the 5′ and 3′ of the coding sequence respectively by PCR amplification. This DNA fragment was directionally subcloned in-frame into the Bam HI and Eco RI polyclonal sites of the pAcG2T vector. Positive recombinant clones of SGK2α in the pAcG2T vector were determined by restriction enzyme analysis with Bam HI and Eco RI restriction enzymes.
Active SGK2α enzyme was expressed using the baculovirus expression vector system in a two-step process. […] A complete quantitative and qualitative analysis of the protein was monitored using Coomassie blue staining and Western blot analysis using anti-GST specific antibody (Kinetek). […]

[6] = system: HUVEC cells; assay: Cytotoxicity assay (calcein AM cell viability), HUVEC; type: cell-based; conditions: 50 μM, approximately 24 hours
Excerpt: as §5, §6, §7, §8, §9

[7] = system: HS27 cells; assay: Cytotoxicity assay (calcein AM cell viability), HS27; type: cell-based; conditions: 50 μM, approximately 24 hours
Excerpt: as §5, §6, §7, §8, §9

Which inhibition at 50 µM [1] does the source give for `CCc1c2cc(OC)c(OC)cc2cc(=O)n1Cc1ccccc1` [2-Benzyl-1-ethyl-6,7-dimethoxy-2H-isoquinolin-3-one] here?
The inhibition at 50 µM was 42%.

What about the in vitro cytotoxicity [2] of the same molecule?
The in vitro cytotoxicity was 0%.

And the inhibition at 50 µM [3]?
The inhibition at 50 µM was 27%.

And the inhibition at 50 µM [4]?
Its inhibition at 50 µM is 67%.

What about the IC50 [5] of the same molecule?
Its IC50 is 970 nM.

What about the in vitro cytotoxicity [6] of the same molecule?
Its in vitro cytotoxicity is 4%.

And the in vitro cytotoxicity [7]?
Its in vitro cytotoxicity is 0%.
